Measured values reported in ChEMBL document CHEMBL3044797 (Crop Prot, 2008).
Values after ≈ are worked out from the molar mass of the structure shown.

Tests used:
Type in all cases: functional, organism-based
Fusarium graminearum [1] = experiment: Fungicidal activity against Wind-type carbendazim-sensitive Fusarium graminearum isolate
Fusarium graminearum [2] = experiment: Fungicidal activity against compound-sensitive Fusarium graminearum isolate
Blumeria graminis = experiment: Fungicidal activity against Blumeria graminis infested wheat plant in greenhouse assessed as reduction in powdery mildew formation measured after 10 days; details: 240 h
[3] = tested on: Pseudoperonospora cubensis; experiment: Fungicidal activity against Pseudoperonospora cubensis zoosporangia isolate obtained from downy mildew diseased cucumber plant assessed as reduction in mildew development measured after 7 to 10 days
Alternaria solani = experiment: Fungicidal activity against Alternaria solani assessed as inhibition of mycelial growth
Phytophthora capsici = experiment: Fungicidal activity against Phytophthora capsici assessed as inhibition of mycelial growth
Pyricularia grisea = experiment: Fungicidal activity against Magnaporthe grisea assessed as inhibition of mycelial growth
Botrytis cinerea = experiment: Fungicidal activity against Botryotinia fuckeliana assessed as inhibition of mycelial growth
Sclerotinia sclerotiorum = experiment: Fungicidal activity against Sclerotinia sclerotiorum assessed as inhibition of mycelial growth
Dothiorella gregaria = experiment: Fungicidal activity against Dothiorella gregaria assessed as inhibition of mycelial growth
Colletotrichum truncatum = experiment: Fungicidal activity against Colletotrichum capsici assessed as inhibition of mycelial growth
Fusarium oxysporum = experiment: Fungicidal activity against Fusarium oxysporum assessed as inhibition of mycelial growth
Fusarium verticillioides = experiment: Fungicidal activity against Fusarium verticillioides assessed as inhibition of mycelial growth

`CCOC(=O)/C(C#N)=C(/N)c1ccccc1` was tested, and the EC50 (Fusarium graminearum [1]) was 0.108 µg/mL (≈ 0.499 µM), the EC50 (Fusarium graminearum [2]) was 0.141 µg/mL (≈ 0.652 µM) and the EC50 (Blumeria graminis) was over 1000 µg/mL. It also gave an EC50 [3] of 12.7 µg/mL (≈ 58.9 µM), an EC50 (Alternaria solani) of 133 µg/mL (≈ 616 µM) and an EC50 (Phytophthora capsici) of 111 µg/mL (≈ 515 µM). It also gave an EC50 (Pyricularia grisea) of 77.1 µg/mL (≈ 356 µM), an EC50 (Botrytis cinerea) of 72.2 µg/mL (≈ 334 µM) and an EC50 (Sclerotinia sclerotiorum) of 72.1 µg/mL (≈ 333 µM). It also gave an EC50 (Dothiorella gregaria) of 39.7 µg/mL (≈ 184 µM), an EC50 (Colletotrichum truncatum) of 28.2 µg/mL (≈ 130 µM) and an EC50 (Fusarium oxysporum) of 3.56 µg/mL (≈ 16.5 µM). For the same compound, the EC50 (Fusarium verticillioides) was 0.459 µg/mL (≈ 2.12 µM).
